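Each compound was tested at five concentrations against cells in 96-well plates for 48 hours. The concentration for full growth arrest is given as TGI.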
Key:
Experiment in all cases: NCI anticancer screen, dose series, 48 h
786-0 renal = tested on: 786-0 renal
A498 renal = tested on: A498 renal
A549 NSCLC = tested on: A549 NSCLC
ACHN renal = tested on: ACHN renal
CAKI-1 renal = tested on: CAKI-1 renal
COLO 205 colon = tested on: COLO 205 colon
DLD-1 colon = tested on: DLD-1 colon
DMS 114 small cell lung = tested on: DMS 114 small cell lung
DMS 273 small cell lung = tested on: DMS 273 small cell lung
HCC-2998 colon = tested on: HCC-2998 colon
HCT-116 colon = tested on: HCT-116 colon
HCT-15 colon = tested on: HCT-15 colon
HL-60(TB) leukemia = tested on: HL-60(TB) leukemia
HOP-62 NSCLC = tested on: HOP-62 NSCLC
HOP-92 NSCLC = tested on: HOP-92 NSCLC
HT29 colon = tested on: HT29 colon
KM12 colon = tested on: KM12 colon
LOX IMVI melanoma = tested on: LOX IMVI melanoma
LXFL 529 NSCLC = tested on: LXFL 529 NSCLC
M14 melanoma = tested on: M14 melanoma
MALME-3M melanoma = tested on: MALME-3M melanoma
MOLT-4 leukemia = tested on: MOLT-4 leukemia
NCI-H226 lung = tested on: NCI-H226 lung
NCI-H460 lung = tested on: NCI-H460 lung
NCI-H522 lung = tested on: NCI-H522 lung
OVCAR-4 ovarian = tested on: OVCAR-4 ovarian
OVCAR-5 ovarian = tested on: OVCAR-5 ovarian
RPMI-8226 leukemia = tested on: RPMI-8226 leukemia
RXF 393 renal = tested on: RXF 393 renal
RXF-631 renal = tested on: RXF-631 renal
SF-268 CNS = tested on: SF-268 CNS
SF-295 CNS = tested on: SF-295 CNS
SK-MEL-2 melanoma = tested on: SK-MEL-2 melanoma
SK-MEL-28 melanoma = tested on: SK-MEL-28 melanoma
SK-MEL-5 melanoma = tested on: SK-MEL-5 melanoma
SK-OV-3 ovarian = tested on: SK-OV-3 ovarian
SN12C renal = tested on: SN12C renal
SNB-19 CNS = tested on: SNB-19 CNS
SNB-75 CNS = tested on: SNB-75 CNS
SR leukemia = tested on: SR leukemia
SW-620 colon = tested on: SW-620 colon
TK-10 renal = tested on: TK-10 renal
UACC-257 melanoma = tested on: UACC-257 melanoma
XF 498 CNS = tested on: XF 498 CNS
CCRF-CEM leukemia = tested on: CCRF-CEM leukemia
EKVX NSCLC = tested on: EKVX NSCLC
IGROV1 ovarian = tested on: IGROV1 ovarian
K-562 leukemia = tested on: K-562 leukemia
M19-MEL melanoma = tested on: M19-MEL melanoma
NCI-H23 lung = tested on: NCI-H23 lung
OVCAR-3 ovarian = tested on: OVCAR-3 ovarian
OVCAR-8 ovarian = tested on: OVCAR-8 ovarian
SF-539 CNS = tested on: SF-539 CNS
SNB-78 CNS = tested on: SNB-78 CNS
U251 CNS = tested on: U251 CNS
UACC-62 melanoma = tested on: UACC-62 melanoma

## O=C(NN1C(=O)CS(=O)(=O)C1c1cccc(F)c1)c1ccncc1 (stereo not given)
786-0 renal
  TGI: > 100 µM
A498 renal
  TGI: > 100 µM
A549 NSCLC
  TGI: > 100 µM
ACHN renal
  TGI: > 100 µM
CAKI-1 renal
  TGI: > 100 µM
COLO 205 colon
  TGI: > 100 µM
DLD-1 colon
  TGI: > 100 µM
DMS 114 small cell lung
  TGI: > 100 µM
DMS 273 small cell lung
  TGI: > 100 µM
HCC-2998 colon
  TGI: > 100 µM
HCT-116 colon
  TGI: > 100 µM
HCT-15 colon
  TGI: > 100 µM
HL-60(TB) leukemia
  TGI: > 100 µM
HOP-62 NSCLC
  TGI: > 100 µM
HOP-92 NSCLC
  TGI: > 100 µM
HT29 colon
  TGI: > 100 µM
KM12 colon
  TGI: > 100 µM
LOX IMVI melanoma
  TGI: > 100 µM
LXFL 529 NSCLC
  TGI: > 100 µM
M14 melanoma
  TGI: > 100 µM
MALME-3M melanoma
  TGI: > 100 µM
MOLT-4 leukemia
  TGI: > 100 µM
NCI-H226 lung
  TGI: > 100 µM
NCI-H460 lung
  TGI: > 100 µM
NCI-H522 lung
  TGI: > 100 µM
OVCAR-4 ovarian
  TGI: > 100 µM
OVCAR-5 ovarian
  TGI: > 100 µM
RPMI-8226 leukemia
  TGI: > 100 µM
RXF 393 renal
  TGI: > 100 µM
RXF-631 renal
  TGI: > 100 µM
SF-268 CNS
  TGI: > 100 µM
SF-295 CNS
  TGI: > 100 µM
SK-MEL-2 melanoma
  TGI: > 100 µM
SK-MEL-28 melanoma
  TGI: > 100 µM
SK-MEL-5 melanoma
  TGI: > 100 µM
SK-OV-3 ovarian
  TGI: > 100 µM
SN12C renal
  TGI: > 100 µM
SNB-19 CNS
  TGI: > 100 µM
SNB-75 CNS
  TGI: > 100 µM
SR leukemia
  TGI: > 100 µM
SW-620 colon
  TGI: > 100 µM
TK-10 renal
  TGI: > 100 µM
UACC-257 melanoma
  TGI: > 100 µM
XF 498 CNS
  TGI: > 100 µM

## Nc1ccc(C(c2ccccc2)(c2ccccc2)c2ccccc2)cc1
786-0 renal
  TGI: > 100 µM
A498 renal
  TGI: > 100 µM
A549 NSCLC
  TGI: > 100 µM
ACHN renal
  TGI: > 100 µM
CCRF-CEM leukemia
  TGI: > 100 µM
COLO 205 colon
  TGI: > 100 µM
DLD-1 colon
  TGI: > 100 µM
DMS 114 small cell lung
  TGI: > 100 µM
DMS 273 small cell lung
  TGI: > 100 µM
EKVX NSCLC
  TGI: > 100 µM
HCC-2998 colon
  TGI: > 100 µM
HCT-116 colon
  TGI: > 100 µM
HCT-15 colon
  TGI: > 100 µM
HL-60(TB) leukemia
  TGI: 91.6 µM
HOP-62 NSCLC
  TGI: 75.8 µM
HOP-92 NSCLC
  TGI: 31.1 µM
HT29 colon
  TGI: > 100 µM
IGROV1 ovarian
  TGI: > 100 µM
K-562 leukemia
  TGI: > 100 µM
KM12 colon
  TGI: > 100 µM
LOX IMVI melanoma
  TGI: > 100 µM
LXFL 529 NSCLC
  TGI: > 100 µM
M14 melanoma
  TGI: 30.1 µM
M19-MEL melanoma
  TGI: > 100 µM
MALME-3M melanoma
  TGI: > 100 µM
MOLT-4 leukemia
  TGI: > 100 µM
NCI-H23 lung
  TGI: 88.4 µM
NCI-H460 lung
  TGI: > 100 µM
OVCAR-3 ovarian
  TGI: > 100 µM
OVCAR-4 ovarian
  TGI: > 100 µM
OVCAR-8 ovarian
  TGI: > 100 µM
RPMI-8226 leukemia
  TGI: > 100 µM
RXF 393 renal
  TGI: 56 µM
RXF-631 renal
  TGI: > 100 µM
SF-268 CNS
  TGI: > 100 µM
SF-295 CNS
  TGI: 34.4 µM
SF-539 CNS
  TGI: > 100 µM
SK-MEL-2 melanoma
  TGI: > 100 µM
SK-MEL-28 melanoma
  TGI: 56.1 µM
SK-MEL-5 melanoma
  TGI: > 100 µM
SK-OV-3 ovarian
  TGI: 35.7 µM
SN12C renal
  TGI: > 100 µM
SNB-75 CNS
  TGI: 53.9 µM
SNB-78 CNS
  TGI: 77 µM
SR leukemia
  TGI: > 100 µM
SW-620 colon
  TGI: > 100 µM
TK-10 renal
  TGI: 95.3 µM
U251 CNS
  TGI: 62.1 µM
UACC-257 melanoma
  TGI: > 100 µM
UACC-62 melanoma
  TGI: 41.3 µM
XF 498 CNS
  TGI: 41.1 µM
